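Compound exposure: 48 hours, 5 concentrations, 96-well plates. GI50 is the concentration that inhibits growth by half.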 Calls of active or inactive are those of the source. No stated cut-off is given here; in the data, active = GI50 up to about 1.1 µM and inactive = higher.
Experiments:
Experiment in all cases: growth of human tumour cells (NCI), 48 h
MOLT-4 = system: MOLT-4
IGROV-1 = system: IGROV-1
KM12 = system: KM12
TK-10 = system: TK-10
SN12C = system: SN12C
SW-620 = system: SW-620
RXF 393 = system: RXF 393
PC-3 = system: PC-3
SF-295 = system: SF-295
A549 = system: A549
M14 = system: M14
SF-268 = system: SF-268
NCI-H23 = system: NCI-H23
786-0 = system: 786-0
HT-29 = system: HT-29
MCF7 = system: MCF7
COLO 205 = system: COLO 205
CCRF-CEM = system: CCRF-CEM
HOP-62 = system: HOP-62
K562 = system: K562
UACC-62 = system: UACC-62
HCC 2998 = system: HCC 2998
Malme-3M = system: Malme-3M
MDA-MB-231 = system: MDA-MB-231
HCT-15 = system: HCT-15
EKVX = system: EKVX
SK-MEL-28 = system: SK-MEL-28
MDA-N = system: MDA-N
SK-OV-3 = system: SK-OV-3
T47D = system: T47D
DU-145 = system: DU-145
HL-60 = system: HL-60
RPMI-8226 = system: RPMI-8226
LOX IMVI = system: LOX IMVI
SK-MEL-5 = system: SK-MEL-5
SR = system: SR
SNB-75 = system: SNB-75
UACC-257 = system: UACC-257
CAKI-1 = system: CAKI-1
OVCAR-8 = system: OVCAR-8
NCI-H226 = system: NCI-H226
U-251 = system: U-251
NCI/ADR-RES = system: NCI/ADR-RES
ACHN = system: ACHN
NCI-H460 = system: NCI-H460
Hs-578T = system: Hs-578T
OVCAR-4 = system: OVCAR-4
HCT-116 = system: HCT-116
OVCAR-3 = system: OVCAR-3
SF-539 = system: SF-539
NCI-H522 = system: NCI-H522
MDA-MB-435 = system: MDA-MB-435
SK-MEL-2 = system: SK-MEL-2
UO-31 = system: UO-31

`CCCCCCCCCC[C@@H](OC(C)=O)[C@@H]1CC[C@@H]([C@@H]2CC[C@@H]([C@@H](O)CC#C/C=C/CCCCCCC[C@@]3(Sc4ccccc4)C[C@H](C)OC3=O)O2)O1` was tested, and the GI50 (MOLT-4) was > 10 µM (inactive), the GI50 (IGROV-1) was > 10 µM (inactive) and the GI50 (KM12) was > 10 µM (inactive). The GI50 (TK-10) was > 10 µM (inactive), the GI50 (SN12C) was > 10 µM (inactive) and the GI50 (SW-620) was > 10 µM (inactive). For the same molecule, the GI50 (RXF 393) was > 10 µM (inactive), the GI50 (PC-3) was > 10 µM (inactive) and the GI50 (SF-295) was > 10 µM (inactive). The GI50 (A549) was > 10 µM (inactive), the GI50 (M14) was > 10 µM (inactive) and the GI50 (SF-268) was > 10 µM (inactive). For the same molecule, the GI50 (NCI-H23) was 0.968 µM (active), the GI50 (786-0) was > 10 µM (inactive) and the GI50 (HT-29) was > 10 µM (inactive). The GI50 (MCF7) was > 10 µM (inactive), the GI50 (COLO 205) was > 10 µM (inactive) and the GI50 (CCRF-CEM) was > 10 µM (inactive). The GI50 (HOP-62) was > 10 µM (inactive), the GI50 (K562) was 9.89 µM (inactive) and the GI50 (UACC-62) was > 10 µM (inactive). For the same molecule, the GI50 (HCC 2998) was > 10 µM (inactive), the GI50 (Malme-3M) was > 10 µM (inactive) and the GI50 (MDA-MB-231) was > 10 µM (inactive). For the same molecule, the GI50 (HCT-15) was over 10 µM, the GI50 (EKVX) was > 10 µM (inactive) and the GI50 (SK-MEL-28) was > 10 µM (inactive). For the same molecule, the GI50 (MDA-N) was > 10 µM (inactive), the GI50 (SK-OV-3) was > 10 µM (inactive) and the GI50 (T47D) was 7.46 µM (inactive). For the same molecule, the GI50 (DU-145) was > 10 µM (inactive), the GI50 (HL-60) was > 10 µM (inactive) and the GI50 (RPMI-8226) was > 10 µM (inactive). The GI50 (LOX IMVI) was > 10 µM (inactive), the GI50 (SK-MEL-5) was 4.57 µM (inactive) and the GI50 (SR) was > 10 µM (inactive). For the same molecule, the GI50 (SNB-75) was > 10 µM (inactive), the GI50 (UACC-257) was 3.08 µM (inactive) and the GI50 (CAKI-1) was > 10 µM (inactive). The GI50 (OVCAR-8) was > 10 µM (inactive).
For `N#Cc1ccc(/N=C(/NCC(=O)O)Nc2cccc3ccccc23)cc1`, the GI50 (MOLT-4) was > 10 µM (inactive), the GI50 (IGROV-1) was > 10 µM (inactive) and the GI50 (KM12) was > 10 µM (inactive). For the same molecule, the GI50 (TK-10) was > 10 µM (inactive), the GI50 (SN12C) was > 10 µM (inactive) and the GI50 (SW-620) was > 10 µM (inactive). The GI50 (RXF 393) was > 10 µM (inactive), the GI50 (PC-3) was > 10 µM (inactive) and the GI50 (SF-295) was > 10 µM (inactive). The GI50 (A549) was > 10 µM (inactive), the GI50 (M14) was > 10 µM (inactive) and the GI50 (SF-268) was > 10 µM (inactive). The GI50 (NCI-H23) was > 10 µM (inactive), the GI50 (786-0) was > 10 µM (inactive) and the GI50 (HT-29) was > 10 µM (inactive). The GI50 (MCF7) was > 10 µM (inactive), the GI50 (COLO 205) was > 10 µM (inactive) and the GI50 (CCRF-CEM) was > 10 µM (inactive). The GI50 (HOP-62) was > 10 µM (inactive), the GI50 (K562) was > 10 µM (inactive) and the GI50 (UACC-62) was > 10 µM (inactive). The GI50 (HCC 2998) was > 10 µM (inactive), the GI50 (Malme-3M) was > 10 µM (inactive) and the GI50 (MDA-MB-231) was > 10 µM (inactive). For the same molecule, the GI50 (HCT-15) was over 10 µM, the GI50 (EKVX) was > 10 µM (inactive) and the GI50 (SK-MEL-28) was > 10 µM (inactive). The GI50 (MDA-N) was > 10 µM (inactive), the GI50 (SK-OV-3) was > 10 µM (inactive) and the GI50 (T47D) was > 10 µM (inactive). For the same molecule, the GI50 (DU-145) was > 10 µM (inactive), the GI50 (HL-60) was > 10 µM (inactive) and the GI50 (RPMI-8226) was > 10 µM (inactive). For the same molecule, the GI50 (SK-MEL-5) was > 10 µM (inactive), the GI50 (SR) was > 10 µM (inactive) and the GI50 (SNB-75) was > 10 µM (inactive). The GI50 (UACC-257) was > 10 µM (inactive), the GI50 (CAKI-1) was > 10 µM (inactive) and the GI50 (OVCAR-8) was > 10 µM (inactive).
With `CC(C)=CCC1=C(O)C(=O)c2ccccc2C1=O` the GI50 (NCI-H226) was > 100 µM (inactive), the GI50 (HCC 2998) was > 100 µM (inactive) and the GI50 (EKVX) was > 100 µM (inactive).
In the case of `CC1(C)N=C(N)N=C(N)N1c1ccc(CCCCCCc2ccc(S(=O)(=O)F)cc2)cc1`, the GI50 (U-251) is reported as < 0.0352 µM (active), the GI50 (NCI/ADR-RES) is reported as 22.9 µM (inactive) and the GI50 (IGROV-1) is reported as < 0.0395 µM (active). For the same molecule, the GI50 (KM12) was 0.276 µM (active), the GI50 (TK-10) was 1.02 µM (active) and the GI50 (SN12C) was 0.028 µM (active). For the same molecule, the GI50 (ACHN) was 0.274 µM (active), the GI50 (NCI-H460) was < 0.0229 µM (active) and the GI50 (SW-620) was < 0.0211 µM (active). For the same molecule, the GI50 (Hs-578T) was 2.18 µM (inactive), the GI50 (SF-295) was 0.114 µM (active) and the GI50 (A549) was < 0.0376 µM (active). The GI50 (M14) was 1.24 µM (inactive), the GI50 (NCI-H23) was 0.0617 µM (active) and the GI50 (786-0) was < 0.01 µM (active). For the same molecule, the GI50 (HT-29) was < 0.0468 µM (active), the GI50 (MCF7) was 0.0828 µM (active) and the GI50 (OVCAR-4) was 31.8 µM (inactive). The GI50 (COLO 205) was 0.144 µM (active), the GI50 (HCT-116) was 0.017 µM (active) and the GI50 (OVCAR-3) was 0.247 µM (active). The GI50 (CCRF-CEM) was < 0.01 µM (active), the GI50 (HOP-62) was 1.19 µM (inactive) and the GI50 (SF-539) was < 0.0189 µM (active). For the same molecule, the GI50 (K562) was < 0.0105 µM (active), the GI50 (NCI-H522) was 1.55 µM (inactive) and the GI50 (MDA-MB-435) was 0.0557 µM (active). The GI50 (SK-MEL-2) was 3.72 µM (inactive), the GI50 (UACC-62) was < 0.01 µM (active) and the GI50 (HCC 2998) was 2.23 µM (inactive). For the same molecule, the GI50 (HCT-15) was 0.857 µM, the GI50 (SK-MEL-28) was 3.88 µM (inactive) and the GI50 (SK-OV-3) was 8.53 µM (inactive). The GI50 (T47D) was 8 µM (inactive), the GI50 (DU-145) was 0.421 µM (active) and the GI50 (HL-60) was 0.132 µM (active). For the same molecule, the GI50 (SR) was < 0.01 µM (active), the GI50 (SNB-75) was 3.36 µM (inactive) and the GI50 (UO-31) was 14.1 µM (inactive). The GI50 (CAKI-1) was 12.3 µM (inactive).

From ChEMBL document CHEMBL1201862, “PubChem BioAssay data set” (2004)
